Assay results: the NIST ThermoML archive (doi:10.1016/j.jct.2014.01.006)
Values joined by “and” are separate entries in the source; they are usually repeats but may differ in a detail not shown here. Equal entries are not always repeated.

How the values were obtained:
[1] = for vapor or sublimation pressure: Liquid, Ebulliometric method (Recirculating still); for Triple point temperature: Adiabatic calorimetry
[2] = Molar enthalpy of transition or fusion; conditions: Crystal; Adiabatic calorimetry
[3] = molar heat capacity at saturation pressure

c1ccc(-c2ccc3ccccc3c2)cc1 [2-phenylnaphthalene]
[1]
Conditions | Triple point temperature [K] | vapor or sublimation pressure [kPa]
482.85 K | – | 1.996
502.83 K | – | 3.998
511.75 K | – | 5.335
524.93 K | – | 7.993
534.9 K | – | 10.67
542.89 K | – | 13.33
551.2 K | – | 16.66
558.16 K | – | 19.95
567.23 K | – | 25.03
576.35 K | – | 31.16
585.57 K | – | 38.56
594.82 K | – | 47.36
604.12 K | – | 57.8
Crystal | 374.77 | –
Metastable crystal | 331.4 | –

Conditions | Molar enthalpy of transition or fusion [kcal/mol]
[2] | 5.406

[3]
Conditions | molar heat capacity
5.559 K, Metastable crystal, Vacuum adiabatic calorimetry | 0.7317 J/K/mol
6.48 K, Metastable crystal, Vacuum adiabatic calorimetry | 1.172 J/K/mol
7.437 K, Metastable crystal, Vacuum adiabatic calorimetry | 1.821 J/K/mol
8.415 K, Metastable crystal, Vacuum adiabatic calorimetry | 2.519 J/K/mol
9.445 K, Metastable crystal, Vacuum adiabatic calorimetry | 3.484 J/K/mol
10.55 K, Metastable crystal, Vacuum adiabatic calorimetry | 4.639 J/K/mol
11.76 K, Metastable crystal, Vacuum adiabatic calorimetry | 5.912 J/K/mol
13.12 K, Metastable crystal, Vacuum adiabatic calorimetry | 7.541 J/K/mol
14.58 K, Metastable crystal, Vacuum adiabatic calorimetry | 9.304 J/K/mol
16.16 K, Metastable crystal, Vacuum adiabatic calorimetry | 11.42 J/K/mol
17.89 K, Metastable crystal, Vacuum adiabatic calorimetry | 13.64 J/K/mol
19.78 K, Metastable crystal, Vacuum adiabatic calorimetry | 16.13 J/K/mol
21.84 K, Metastable crystal, Vacuum adiabatic calorimetry | 18.86 J/K/mol
24.08 K, Metastable crystal, Vacuum adiabatic calorimetry | 21.79 J/K/mol
26.55 K, Metastable crystal, Vacuum adiabatic calorimetry | 25.04 J/K/mol
29.3 K, Metastable crystal, Vacuum adiabatic calorimetry | 28.54 J/K/mol
32.36 K, Metastable crystal, Vacuum adiabatic calorimetry | 32.33 J/K/mol
35.77 K, Metastable crystal, Vacuum adiabatic calorimetry | 36.35 J/K/mol
39.57 K, Metastable crystal, Vacuum adiabatic calorimetry | 40.62 J/K/mol
43.81 K, Metastable crystal, Vacuum adiabatic calorimetry | 45.16 J/K/mol
48.55 K, Metastable crystal, Vacuum adiabatic calorimetry | 49.75 J/K/mol
53.87 K, Metastable crystal, Vacuum adiabatic calorimetry | 54.71 J/K/mol
54.57 K, Metastable crystal, Vacuum adiabatic calorimetry | 55.24 J/K/mol
59.82 K, Metastable crystal, Vacuum adiabatic calorimetry | 59.78 J/K/mol
59.83 K, Metastable crystal, Vacuum adiabatic calorimetry | 59.82 J/K/mol
65.64 K, Metastable crystal, Vacuum adiabatic calorimetry | 64.42 J/K/mol
66.41 K, Metastable crystal, Vacuum adiabatic calorimetry | 64.99 J/K/mol
72.14 K, Metastable crystal, Vacuum adiabatic calorimetry | 69.36 J/K/mol
79.33 K, Metastable crystal, Vacuum adiabatic calorimetry | 74.52 J/K/mol
84.66 K, Metastable crystal, Vacuum adiabatic calorimetry | 78.26 J/K/mol
87.38 K, Metastable crystal, Vacuum adiabatic calorimetry | 80.02 J/K/mol
91.53 K, Metastable crystal, Vacuum adiabatic calorimetry | 82.9 J/K/mol
96.29 K, Metastable crystal, Vacuum adiabatic calorimetry | 86.19 J/K/mol
100.11 K, Metastable crystal, Vacuum adiabatic calorimetry | 88.71 J/K/mol
109.67 K, Metastable crystal, Vacuum adiabatic calorimetry | 95.07 J/K/mol
119.51 K, Metastable crystal, Vacuum adiabatic calorimetry | 101.67 J/K/mol
129.29 K, Metastable crystal, Vacuum adiabatic calorimetry | 108.34 J/K/mol
139.13 K, Metastable crystal, Vacuum adiabatic calorimetry | 115.15 J/K/mol
149.04 K, Metastable crystal, Vacuum adiabatic calorimetry | 122.22 J/K/mol
159.05 K, Metastable crystal, Vacuum adiabatic calorimetry | 129.45 J/K/mol
169.13 K, Metastable crystal, Vacuum adiabatic calorimetry | 137.04 J/K/mol
179.22 K, Metastable crystal, Vacuum adiabatic calorimetry | 144.69 J/K/mol
189.28 K, Metastable crystal, Vacuum adiabatic calorimetry | 152.55 J/K/mol
199.33 K, Metastable crystal, Vacuum adiabatic calorimetry | 160.58 J/K/mol
210.43 K, Metastable crystal, Vacuum adiabatic calorimetry | 169.63 J/K/mol
222.54 K, Metastable crystal, Vacuum adiabatic calorimetry | 179.67 J/K/mol
234.7 K, Metastable crystal, Vacuum adiabatic calorimetry | 190.12 J/K/mol
246.9 K, Metastable crystal, Vacuum adiabatic calorimetry | 200.49 J/K/mol
260.13 K, Metastable crystal, Vacuum adiabatic calorimetry | 212.11 J/K/mol
274.34 K, Metastable crystal, Vacuum adiabatic calorimetry | 224.81 J/K/mol
281.75 K, Metastable crystal, Vacuum adiabatic calorimetry | 231.62 J/K/mol
287.18 K, Metastable crystal, Vacuum adiabatic calorimetry | 236.87 J/K/mol
288.45 K, Metastable crystal, Vacuum adiabatic calorimetry | 238 J/K/mol
288.88 K, Metastable crystal, Vacuum adiabatic calorimetry | 238.28 J/K/mol
289.67 K, Metastable crystal, Vacuum adiabatic calorimetry | 239.32 J/K/mol
290.86 K, Metastable crystal, Vacuum adiabatic calorimetry | 240.77 J/K/mol
297.62 K, Metastable crystal, Vacuum adiabatic calorimetry | 247.26 J/K/mol
302.22 K, Metastable crystal, Vacuum adiabatic calorimetry | 251.81 J/K/mol
303.66 K, Metastable crystal, Vacuum adiabatic calorimetry | 253.46 J/K/mol
304.26 K, Metastable crystal, Vacuum adiabatic calorimetry | 253.82 J/K/mol
305.95 K, Metastable crystal, Vacuum adiabatic calorimetry | 255.73 J/K/mol
316.27 K, Metastable crystal, Vacuum adiabatic calorimetry | 265.74 J/K/mol
319.32 K, Metastable crystal, Vacuum adiabatic calorimetry | 269.07 J/K/mol
319.63 K, Metastable crystal, Vacuum adiabatic calorimetry | 269.43 J/K/mol
323.18 K, Metastable crystal, Vacuum adiabatic calorimetry | 273.51 J/K/mol
328.64 K, Metastable crystal, Vacuum adiabatic calorimetry | 281.65 J/K/mol
334.1 K, Crystal, Vacuum adiabatic calorimetry | 295.45 J/K/mol
339.55 K, Crystal, Vacuum adiabatic calorimetry | 300.3 J/K/mol
340.55 K, Crystal, Vacuum adiabatic calorimetry | 301.83 J/K/mol
345.85 K, Crystal, Vacuum adiabatic calorimetry | 308.66 J/K/mol
346.7 K, Crystal, Vacuum adiabatic calorimetry | 310.38 J/K/mol
352.89 K, Crystal, Vacuum adiabatic calorimetry | 319.98 J/K/mol
354.52 K, Crystal, Vacuum adiabatic calorimetry | 323.81 J/K/mol
355.25 K, Crystal, Vacuum adiabatic calorimetry | 323.51 J/K/mol
356.41 K, Crystal, Vacuum adiabatic calorimetry | 326.01 J/K/mol
360.85 K, Crystal, Vacuum adiabatic calorimetry | 334.71 J/K/mol
364.78 K, Crystal, Vacuum adiabatic calorimetry | 343.22 J/K/mol
365.47 K, Crystal, Vacuum adiabatic calorimetry | 344.57 J/K/mol
365.99 K, Crystal, Vacuum adiabatic calorimetry | 347.25 J/K/mol
368.76 K, Crystal, Vacuum adiabatic calorimetry | 353.17 J/K/mol
381.15 K, Liquid, Vacuum adiabatic calorimetry | 364.06 J/K/mol
381.64 K, Liquid, Vacuum adiabatic calorimetry | 364.18 J/K/mol
382.95 K, Liquid, Vacuum adiabatic calorimetry | 365.06 J/K/mol
388.39 K, Liquid, Vacuum adiabatic calorimetry | 368.05 J/K/mol
390.22 K, Liquid, Vacuum adiabatic calorimetry | 369.13 J/K/mol
405.19 K, Liquid, Vacuum adiabatic calorimetry | 377.51 J/K/mol
410.1 K, Liquid, Small sample (50 mg) DSC | 380.3 J/K/mol and 382.63 J/K/mol
422.04 K, Liquid, Vacuum adiabatic calorimetry | 386.86 J/K/mol
430 K, Liquid, Small sample (50 mg) DSC | 394.6 J/K/mol and 391.03 J/K/mol
436.24 K, Liquid, Vacuum adiabatic calorimetry | 394.72 J/K/mol
450 K, Liquid, Small sample (50 mg) DSC | 405.58 J/K/mol and 401.51 J/K/mol
470.1 K, Liquid, Small sample (50 mg) DSC | 411.15 J/K/mol and 413.48 J/K/mol
490 K, Liquid, Small sample (50 mg) DSC | 424.7 J/K/mol and 423.46 J/K/mol
510 K, Liquid, Small sample (50 mg) DSC | 434.93 J/K/mol and 427.36 J/K/mol
530.1 K, Liquid, Small sample (50 mg) DSC | 446.82 J/K/mol and 444.24 J/K/mol
550.1 K, Liquid, Small sample (50 mg) DSC | 457.21 J/K/mol and 455.97 J/K/mol
570.1 K, Liquid, Small sample (50 mg) DSC | 468.27 J/K/mol and 467.27 J/K/mol
590.1 K, Liquid, Small sample (50 mg) DSC | 477.92 J/K/mol and 476.09 J/K/mol
610.1 K, Liquid, Small sample (50 mg) DSC | 484.48 J/K/mol and 484.15 J/K/mol
